Reference: patent US11390604B2 (Hoffmann-La Roche Inc., priority 2019, dated 2022)
Where a name gives a salt, the structure may show the parent alone.

system: Acinetobacter baumannii ATCC 17961; test: Antimicrobial susceptibility testing: 90% growth inhibitory concentration (IC90) determination; format: cell-based; conditions: ATCC17961, Acinetobacter baumannii ATCC 17961, Iso-Sensitest broth, read-out: ATCC 17961 IC90
Procedure, shortened: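 Broth microdilution in Iso-Sensitest medium, twofold series (e.g. 50 to 0.097 μM final), ~5×10^5 CFU/ml inoculum, 35±2 °C. OD600 read every 20 min over 16 h. IC90 derived from growth inhibition during logarithmic phase.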

Question: How did the IC90 turn out when Cn1c(-c2cn(CC#N)nc2C(F)(F)F)cnc1C(=O)Nc1ccc(C(=O)N[C@H]2CC[C@@H](NC(=O)[C@H]3C[C@H](N)C3)CC2)c(Cl)c1 [Example 372, rac-N-(4-(((1S,4s)-4-((1r,3R)-3-aminocyclobutane-1-carboxamido)cyclohexyl)car-bamoyl)-3-chlorophenyl)-5-(1-(cyanomethyl)-3-(trifluoromethyl)-1H-pyrazol-4-yl)-1-methyl-1H-imidazole-2-carboxamide 2,2,2-trifluoroacetate] was run?
Answer: The IC90 was 486 nM.

Question: With Cn1c(-c2cn(CC3CC3)nc2C(F)(F)F)cnc1C(=O)Nc1ccc(C(=O)NCC2CN(C(=O)N[C@H]3C[C@@H](N)C3)C2)c(Cl)c1 [Example 373, rac-N-(4-(((1-(((1s,3s)-3-aminocyclobutyl)carbamoyl)aze-tidin-3-yl)methyl)carbamoyl)-3-chlorophenyl)-5-(1-(cyclopropylmethyl)-3-(trifluoromethyl)-1H-pyrazol-4-yl)-1-methyl-1H-imidazole-2-carboxamide formate] as the compound, how does the IC90 read?
Answer: Its IC90 is 494 nM.

Question: CCn1cc(-c2cnc(C(=O)Nc3ccc(C(=O)N4CCN(C(=O)C5CCNCC5)CC4)c(Br)c3)n2C)c(C(F)(F)F)n1 [Example 374, N-(3-bromo-4-(4-(piperidine-4-carbonyl)piperazine-1-carbonyl)phenyl)-5-(1-ethyl-3-(trifluoromethyl)-1H-pyrazol-4-yl)-1-methyl-1H-imidazole-2-carboxamide hydrochloride] was tested. Which IC90 did it give?
Answer: Its IC90 is 495 nM.

Question: How did the IC90 turn out when Cn1c(-c2cn(CC(F)F)nc2C(F)(F)F)cnc1C(=O)Nc1ccc(C(=O)N2CCN(CC(=O)NCCN)CC2)c(Cl)c1 [Example 375, N-(4-(4-(2-((2-aminoethyl)amino)-2-oxoethyl)piperazine-1-carbonyl)-3-chlorophenyl)-5-(1-(2,2-difluoroethyl)-3-(trifluoromethyl)-1H-pyrazol-4-yl)-1-methyl-1H-imidazole-2-carboxamide formate] was run?
Answer: Its IC90 is 495 nM.

Question: Which IC90 does the source give for Cn1c(-c2cn(C3CC3)nc2C(F)(F)F)cnc1C(=O)Nc1ccc(C(=O)NCCCCCCNC(=O)NCC2CNC2)c(Cl)c1 [Example 378, N-[4-[6-(azetidin-3-ylmethylcarbamoylamino)hexyl-carbamoyl]-3-chlorophenyl]-5-[1-cyclopropyl-3-(trifluoromethyl)pyrazol-4-yl]-1-methylimidazole-2-carboxamide;formic acid] here?
Answer: The IC90 was 497 nM.

Question: For Cn1c(-c2cn(C3CC3C(F)(F)F)nc2C(F)(F)F)cnc1C(=O)Nc1ccc(C(=O)N2CCN(C(=O)C3CCNCC3)CC2)c(Cl)c1 (centres unmarked) [Example 379, N-(3-chloro-4-(4-(piperidine-4-carbonyl)piperazine-1-carbonyl)phenyl)-1-methyl-5-(3-(trifluoromethyl)-1-(2-(trifluoromethyl)cyclopropyl)-1H-pyrazol-4-yl)-1H-imidazole-2-carboxamide formate], which IC90 is on record?
Answer: Its IC90 is 499 nM.

Question: With Cn1c(-c2cn([C@@H]3CC3(F)F)nc2C(F)(F)F)cnc1C(=O)Nc1ccc(C(=O)N[C@H]2[C@@H]3CN(C(=O)N[C@H]4CNC[C@@H]4O)C[C@@H]32)c(Cl)c1 [Example 380, (1R,5S,6R)-6-(2-chloro-4-(5-(1-((R)-2,2-difluorocyclopropyl)-3-(trifluoromethyl)-1H-pyrazol-4-yl)-1-methyl-1H-imidazole-2-carboxamido)benzamido)-N-((3S,4S)-4-hydroxypyrrolidin-3-yl)-3-azabicyclo[3.1.0]hexane-3-carboxamide] as the compound, how does the IC90 read?
Answer: Its IC90 is 104 nM.

Question: With Cn1c(-c2cn(C3CC3)nc2C(F)(F)F)cnc1C(=O)Nc1ccc(C(=O)N2CCN(C(=O)[C@H]3[C@@H]4CNC[C@@H]43)CC2)c(Cl)c1 [Example 383, N-[3-chloro-4-[4-[rac-(1R,5S)-3-azabicyclo[3.1.0]hexane-6-carbonyl]piperazine-1-carbonyl]phenyl]-5-[1-cyclopropyl-3-(trifluoromethyl)pyrazol-4-yl]-1-methylimidazole-2-carboxamide;hydrochloride] as the compound, how does the IC90 read?
Answer: The IC90 was 234 nM.

Question: For C#CCn1cc(-c2cnc(C(=O)Nc3ccc(C(=O)N[C@H]4[C@@H]5CN(C(=O)N[C@@H]6CNC[C@H]6O)C[C@@H]54)c(Cl)c3)n2C)c(C(F)(F)F)n1 [Example 384, (1R,5S,6s)-6-(2-chloro-4-(1-methyl-5-(1-(prop-2-yn-1-yl)-3-(trifluoromethyl)-1H-pyrazol-4-yl)-1H-imidazole-2-carboxamido)benzamido)-N-((3R,4R)-4-hydroxypyrrolidin-3-yl)-3-azabicyclo[3.1.0]hexane-3-carboxamide formate], which IC90 is on record?
Answer: The IC90 was 64 nM.

Question: Cn1c(-c2cn(CC(F)F)nc2C(F)(F)F)cnc1C(=O)Nc1ccc(C(=O)N[C@H]2[C@@H]3CN(C(=O)N[C@@H]4CNC[C@H]4O)C[C@@H]32)c(Cl)c1 [Example 386, (1R,5S,6s)-6-(2-chloro-4-(5-(1-(2,2-difluoroethyl)-3-(trifluoromethyl)-1H-pyrazol-4-yl)-1-methyl-1H-imidazole-2-carboxamido)benzamido)-N-((3R,4R)-4-hydroxypyrrolidin-3-yl)-3-azabicyclo[3.1.0]hexane-3-carboxamide formate] was tested. Which IC90 did it give?
Answer: The IC90 was 110 nM.

Question: How did the IC90 turn out when C=CCn1cc(-c2cnc(C(=O)Nc3ccc(C(=O)N[C@H]4[C@@H]5CN(C(=O)N[C@@H]6CNC[C@H]6O)C[C@@H]54)c(Cl)c3)n2C)c(C(F)(F)F)n1 [Example 387, (1R,5S,6s)-6-(4-(5-(1-allyl-3-(trifluoromethyl)-1H-pyrazol-4-yl)-1-methyl-1H-imidazole-2-carboxamido)-2-chlorobenzamido)-N-((3R,4R)-4-hydroxypyrrolidin-3-yl)-3-azabicyclo[3.1.0]hexane-3-carboxamide formate] was run?
Answer: The IC90 was 130 nM.

Question: Which IC90 does the source give for Cn1c(-c2cn(CC3CCC3)nc2C(F)(F)F)cnc1C(=O)Nc1ccc(C(=O)N[C@H]2[C@@H]3CN(C(=O)N[C@@H]4CNC[C@H]4O)C[C@@H]32)c(Cl)c1 [Example 388, (1R,5S,6s)-6-(2-chloro-4-(5-(1-(cyclobutylmethyl)-3-(trifluoromethyl)-1H-pyrazol-4-yl)-1-methyl-1H-imidazole-2-carboxamido)benzamido)-N-((3R,4R)-4-hydroxypyrrolidin-3-yl)-3-azabicyclo[3.1.0]hexane-3-carboxamide formate] here?
Answer: The IC90 was 170 nM.

same assay, conditions: Acinetobacter baumannii ATCC 17961, Iso-Sensitest broth, read-out: ATCC 17961 IC90

Question: With “N-(3-amino-3- methylcyclobutyl)-4-[2-chloro- 4-[[5-[1-cyclopropyl-3- (trifluoromethyl)pyrazol-4-yl]- 1-methylimidazole-2- carbonyl]amino]benzoyl]pipera- zine-1-carboxamide;formic acid [Example 238]” as the compound, how does the IC90 read?
Answer: The IC90 was 273 nM.

Question: Which IC90 does the source give for “N-[4-[4-[(3S)-3-carbonyl]piperazine-1-carbonyl]-3-chlorophenyl]-1-methyl-5-[1-prop-2-ynyl-3-(trifluoromethyl)pyrazol-4-yl]imidazole-2-carboxamide [Example 80]” here?
Answer: Its IC90 is 212 nM.

Question: For “N-[4-[(4-aminocyclohexyl)carbamoyl]-3-chlorophenyl]-1-methyl-5-[3-(trifluoromethyl)-1H-pyrazol-4-yl]imidazole-2-carboxamide;2,2,2-trifluoroacetic acid [Example 123]”, which IC90 is on record?
Answer: The IC90 was 3840 nM.

Question: “formic acid;rac-(1S,5R)-8-[2- chloro-4-[[5-[1-(2,2- difluorocyclopropyl)-3- (trifluoromethyl)pyrazol-4-yl]- 1-methyl-imidazole-2- carbonyl]amino]benzoyl]-N- [rac-(3S,4S)-4- hydroxypyrrolidin-3-yl]-3,8- diazabicyclo[3.2.1]octane-3- carboxamide [Example 377]” was tested. Which IC90 did it give?
Answer: Its IC90 is 497 nM.

Question: Which IC90 does the source give for “rac-4-(2-chloro-4-(5-(1- cyclopropyl-3-(trifluoromethyl)- 1H-pyrazol-4-yl)-1-methyl-1H- imidazole-2- carboxamido)benzoyl)-N- ((1s,3s)-3- (methylamino)cyclobutyl)pipera- zine-1-carboxamide formate [Example 256]” here?
Answer: The IC90 was 313 nM.
